Key:
[1] = molecular target: T1, BTK (Mus musculus, UniProt P35991); test: BTK occupancy in spleen, PCA study; assay type: in vivo, mice; settings: 2.5 hours after second oral dose, read-out: BTK occupancy in spleen relative to vehicle controls
T1 construct: each spleen was crushed and lysed in a GentleMACS; from tissue; host or cells: mouse spleen (BALB/c, C57Bl6) and lung (C57Bl6)
Method: The levels of BTK occupancy after dosing of LOU064 was determined in separate ELISAs for total BTK protein and for bound BTK (=free BTK).
Covalent binding of compounds to BTK was determined with immunoassays for free BTK (i.e., not covalently occupied by compound) and total BTK protein. For free BTK measurements, samples were incubated with a biotinylated covalent BTK probe (Pulz R et al, ACS Med. Chem. Lett. 2019, 10, 1467-1472) then samples were added to streptavidin ELISA plates to allow binding of probe-bound BTK. The binding of the probe to BTK is mutually exclusive with compound binding to BTK. Plate-bound BTK was detected with an anti-BTK antibody (D3H5, Cell Signaling Technology). For total BTK measurements, an ELISA plate was coated with D3H5 anti-BTK to capture total BTK. An anti-BTK antibody (no. 53, BD Biosciences) directed to a different epitope was then used to detect captured BTK. The respective free BTK levels for each sample were normalized to the total BTK level in the same sample, and these ratios were expressed as percentage of the vehicle control samples. […]
The relative BTK occupancy was calculated as the ratio of free BTK (signal of bound BTK) to total BTK for each sample: Ri=free BTK/total BTK. The individual Ri values were then normalized to the vehicle group and expressed as percent occupancy: (average of Ri vehicle group-Ri)/(average of Ri vehicle group)*100%

[2] = molecular target: T1, BTK; test: BTK occupancy in spleen and lung, RPA study; assay type: in vivo, mice; settings: single dose 30 mg/kg, 3 hours after eliciting the Arthus reaction
Method: For BTK occupancy in spleen, the experiment was performed as described in the PCA example. For lung BTK occupancy, lysates were prepared from complete lungs including tracheas after perfusing the organs with saline to remove blood in the same manner as for spleen (except that the lysis buffer volume was 500 μl). The lung lysates were then analyzed for free BTK in a separate ELISA. This consisted of a capture step with anti-BTK (Cell Signaling Technologies, #8547, carrier free). Then the captured BTK protein was incubated with 1 μM of covalent biotinylated BTK probe for 1 hour at room temperature. The BTK-bound biotinylated probe was detected by with a streptavidin-HRP conjugate (Cell Signaling Technologies, #3999, used at a dilution of 1:1′000) and a chemiluminescence substrate (Supersignal ELISA Pico, Thermo Scientific, #37070). The luminescence values were corrected for ELISA background reads from control samples measured in absence of BTK capture antibody for the total BTK ELISA and in absence of probe for the BTK-bound ELISA, respectively. The relative BTK occupancy was calculated as the ratio of free BTK (signal of the covalent biotinylated probe bound BTK) to total BTK for each sample: R=free BTK/total BTK. The individual Ri values were then normalized to the vehicle group and expressed as percent occupancy: (average of Ri vehicle group−Ri)/(average of Ri vehicle group)*100%.

[3] = system: BALB/c mice; test: Ovalbumin induced anaphylaxis mouse model: BALF cell counts; assay type: in vivo; settings: 10 mg/kg, 30 mg/Kg p.o. B.I.D., OVA-sensitized mice with poly I:C
Method: This experiment was carried out to investigate the anti-inflammatory effect of LOU064 (10 mg and 30 mg/Kg in OVA-sensitized mice instilleed with polyinosine-polycytidylic acid (poly I: C).
Mice were actively sensitised with ovalbumin (15 μg, s.c.) and 25 μL of Imject Alum on days 0, 7 and 14. In order to elicit a local inflammatory response in the lung, mice were repeatedly exposed on days 21-24 with an aerosol of 1% w/v ovalbumin in phosphate buffered saline (PBS), generated with an ultrasonic nebuliser (Aerogen) for 20 min. 16 h after the final exposure to OVA on day 24, polyinosine-polycytidylic acid (poly I: C, 100 μg/animal) or the vehicle (PBS) was delivered intratracheally with a Microsprayer (model IA-1C with FMJ-250 high pressure syringe, Penn-Century) under anaesthesia with ketamine (100 mg/Kg, i.p.) and xylazine (10 mg/Kg, i.p.). […]
24 h after the final OVA challenge, blood samples were collected by venepuncture into pre-chilled Li Hep tubes. […] The cell pellets were then re-suspended in 1.6 mL of phosphate buffered saline and the BAL cells were then analysed for total and differential numbers. Total and differential cell counts of the BAL fluid samples were measured using a XT-2000iV analyser (Sysmex). […]

T1 sequence (P35991 whole entry): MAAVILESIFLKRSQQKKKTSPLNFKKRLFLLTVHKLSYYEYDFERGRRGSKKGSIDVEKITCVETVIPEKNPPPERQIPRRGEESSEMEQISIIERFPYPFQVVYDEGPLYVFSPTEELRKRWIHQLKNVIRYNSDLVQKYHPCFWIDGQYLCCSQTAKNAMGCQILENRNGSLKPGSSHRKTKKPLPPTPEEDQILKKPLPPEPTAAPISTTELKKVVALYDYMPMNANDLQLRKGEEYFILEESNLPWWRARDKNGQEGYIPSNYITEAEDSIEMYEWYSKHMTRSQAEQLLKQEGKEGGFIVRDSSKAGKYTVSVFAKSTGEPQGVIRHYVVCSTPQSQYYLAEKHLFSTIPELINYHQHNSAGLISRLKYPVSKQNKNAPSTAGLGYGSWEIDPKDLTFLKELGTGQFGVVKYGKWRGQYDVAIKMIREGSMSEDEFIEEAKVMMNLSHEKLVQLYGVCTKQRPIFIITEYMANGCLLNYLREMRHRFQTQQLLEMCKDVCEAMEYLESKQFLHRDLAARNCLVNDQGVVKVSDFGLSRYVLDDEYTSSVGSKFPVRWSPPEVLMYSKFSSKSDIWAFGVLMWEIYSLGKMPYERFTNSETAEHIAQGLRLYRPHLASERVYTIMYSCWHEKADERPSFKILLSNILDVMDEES

## C=CC(=O)N(C)CCOc1c(N)ncnc1-c1cc(F)cc(NC(=O)c2ccc(C3CC3)cc2F)c1C [LOU064, N-(3-(6-amino-5-(2-(N-methylacrylamido)ethoxy)pyrimidin-4-yl)-5-fluoro-2-methylphenyl)-4-cyclopropyl-2-fluorobenzamide]
[1]
  receptor occupancy at 3 mg/kg: 89.1%
[2]
  BTK occupancy kinetic in spleen and lung compared to effect on skin swelling: very similar kinetic
[3]
  Numbers of cells involved in lung anaphylaxis (BALF): significantly reduced

— US20250032488A1, “METHODS OF TREATMENT USING LOU064” (NOVARTIS AG, priority 2021, published 2025)
